The source of these data is publication PMC9681820, “A PDE10A inhibitor CPL500036 is a novel agent modulating striatal function devoid of most neuroleptic side-effects” (Frontiers in Pharmacology, 2022).

The test system of one data set is Sprague–Dawley rats. The data set can be described thus: Catalepsy bar test. The conditions noted are these: p.o. The data set is classed as in vivo. The procedure: Sprague–Dawley rats (∼300 g; Charles River Laboratories, Wilmington, MA, United States) (n = 8–12/group) were treated (p.o.) with vehicle or CPL500036 (0.15 mg/kg, 0.3 mg/kg, 0.6 mg/kg or 2 mg/kg). As a positive control causing catalepsy, haloperidol (1 mg/kg, i.p.) was employed. One hour following drug administration, catalepsy (prolonged maintenance of an externally imposed abnormal posture) was assessed using the bar test as described by Ionova and Severtsev ([Ionov and Severtsev, 2012]). Testing was accomplished by placing each rat in an upright position with his forepaws resting on a horizontal bar (0.9 cm in diameter) suspended in a wooden frame 7.5 cm above the cage floor. The rat was allowed to keep his forepaws on the bar for a measurement lasting for 30 s. The latency to remove both forepaws from the bar was measured with a hand-held stopwatch. The test was repeated for each rat every 30 min up to 240 min. Rats were returned to their home cages between tests. Each rat was tested twice, at an interval of 1 week.

The subject of data set [1] is Salmonella typhimurium TA100. The conditions noted are these: CPL500036 5000µg/plate, n=3.
Another data set deals with other PDE family members. Also noted: method as in Moszczyński-Pętkowski et al., 2018. The conditions noted are these: at a concentration of 100x IC50; ref Moszczyński-Pętkowski et al., 2018; cited from earlier work.
Data set [2] deals with unilateral rat model of Parkinson’s disease. Details: method as in Lenda et al., 2021. The settings on record: Parkinson’s disease animal model; ref Lenda et al., 2021; cited from earlier work.
The subject of data set [3] is N-Methyl-D-aspartic acid receptor. The data set can be described thus: SafetyScreen44 radioligand binding. Details: species or system rat. The conditions noted are these: 1 μM. The procedure:
(§1) The SafetyScreen44® assay was carried out by Eurofins (Poitiers, France) according to the service-provider’s protocol. CPL500036 (1 µM) was tested against a panel of […] potential off-targets proteins, including G protein-coupled receptors (GPCRs), transporters, ion channels, nuclear receptors kinases and other non-kinase enzymes, by use of a set of the binding assays.
(§2) Binding of CPL500036 was calculated as the percent binding inhibition of a radioactively labeled ligand specific for each target. Enzyme inhibition of CPL500036 was calculated as the percent inhibition of the activity of the control enzyme. “No interaction” was denoted if inhibition ≤ 25% of specific binding of the control. Determination of muscarinic acetylcholine receptor (M2) activity induced by CPL500036 (antagonism and agonism) was undertaken in human recombinant CHO cells by measurement of the intracellular cAMP level according to the service-provider’s protocol. IC50 (concentration causing a half-maximal inhibition of specific binding of the control) or EC50 (concentration causing a half-maximal response of specific binding of the control) and the Hill coefficient were determined by non-linear regression analysis of the competition curves generated with mean replicate values using Hill-equation curve fitting with software developed at Cerep (Celle-Lévescault, France).

In data set [4] the test system is voltage-gated sodium channels site 2. Put plainly: SafetyScreen44 radioligand binding. Details: species or system rat. The conditions noted are these: 1 μM. As to the method:
as §1, §2

The subject of data set [5] is calcium channel, voltage-dependent, L type. Put plainly: SafetyScreen44 radioligand binding. Also noted: species or system rat. The settings on record: 1 μM. The procedure:
as §1, §2

Data set [6] concerns α-dendrotoxin sensitive potassium channel. The data set can be described thus: SafetyScreen44 radioligand binding. Details: species or system rat. The conditions noted are these: 1 μM. As to the method: as §1, §2
Data set [7] relates to benzodiazepine receptor (GABAA). Put plainly: SafetyScreen44 radioligand binding. Also noted: species or system rat. The conditions noted are these: 1 μM; agonist radioligand. The procedure:
as §1, §2

Data set [8] relates to cardiac 3D spheroids (cardiomyocytes and fibroblasts derived from human pluripotent cells). The data set can be described thus: Cardiotoxicity in spontaneously beating cardiac 3D spheroids. The data set is classed as cell-based. The procedure:
The cardiotoxic effect of CPL500036 was evaluated in spontaneously beating cardiac 3D spheroids (comprising cardiomyocytes and fibroblasts derived from human pluripotent cells) by Cyprotex (Cheshire, United Kingdom). Experiments were carried out in accordance with the service-provider’s protocol. Specific parameters of cell health were assessed: number and size of spheroids, DNA structure, intracellular level of calcium ions, mitochondrial mass, membrane potential and cellular ATP. […] During the 14 days of the experiment, redosing occurred on three occasions. Spheroid hypertrophy was measured on days 3, 7, 10, and 14 using the “brightfield live cellular imaging” mode of a Cellomics ArrayScan® XTI system (Thermo Scientific, Waltham, MA, United States). On day-14, the spheroid model was analyzed using the confocal mode of Cellomics ArrayScan XTI following incorporation of appropriate fluorescent dyes. Subsequently, cellular ATP content was measured using CellTiterGlo® (Promega, Fitchburg, WI, United States). Mitomicyn C and dasatinib were used as positive controls (Supplementary Table S1).
concentration at which 50% maximum effect is observed for each cell health parameter; NR - No response observed.

Data set [9] concerns Escherichia coli WP2 uvrA. The data set can be described thus: Ames test. The settings on record: CPL500036 5000µg/plate, n=3. (In the Ames test, an excess of revertant colonies over the control signals mutagenicity.)
[10] abbreviates: With metabolic activation (+S9 mix), 2AA 2µg/plate.
[11] abbreviates: Without metabolic activation (-S9 mix), SAZ 2µg/plate.
Where [12] appears, read: Without metabolic activation (-S9 mix), MMS 2µg/plate.

Like-named read-outs stand apart in the source and are kept apart here.

As to `Cc1ncc(C)n2nc(-c3ccn4cc(-c5ccccc5)nc4n3)nc12` [CPL500036, 7-[5,8-Dimethyl-(1,2,4)triazolo (1,5-a)pyrazin-2-yl]-2-phenylimidazo (1,2-a) pyrimidine], the “catalepsy, bar test” value in the data set with Sprague–Dawley rats (0.15 mg/kg, 60 min–240 min after administration) is listed as “did not induce catalepsy”; in the data set on Sprague–Dawley rats (0.3 mg/kg, appeared only at 210 min and 240 min), “low cataleptogenic effect”; in the data set with Sprague–Dawley rats (0.6 mg/kg, 60 min–240 min after administration), “apparent 120 min–240 min following administration, but did not achieve the level elicited by haloperidol”; in the data set on Sprague–Dawley rats (2 mg/kg, compared with haloperidol 1 mg/kg, i.p.), “strong cataleptogenic effect comparable with that of haloperidol”. The “minimum effective dose (MED) needed to elicit catalepsy” value in the data set on Sprague–Dawley rats (from AUC data of the duration of catalepsy) came out at 0.6 mg/kg. Also, the Mutation rate in data set [1] (setting [10]) was 0.82; in [1] (setting [11]), 1.02; in [9] (setting [10]) it was 1.76; in [9] (setting [12]), 1.12. In addition, the “Revertants Mean±SD” value in data set [1] (setting [10]) worked out at 62.3±9.02; in data set [1] (setting [11]), 66.3±1.08; in data set [9] (setting [10]), 42.3±2.89; in data set [9] (setting [12]) it was 22.3±2.08. Also, in the data set on other PDE family members, the “inhibition of other PDE family members” value is “didn’t inhibit other PDE family members”. The “dose showing therapeutic activity” value in data set [2] is 0.1 mg/kg. In addition, the “% Inh (% inhibition of control specific binding)” value in [3] is 4.4%; in [4], −1.3%; in [5] it was −7.2%; in [6], −10.2%; in data set [7] it was −27.7%. The “effect on the number or size of spheroids, intracellular calcium concentration, mitochondrial mass, membrane potential or intracellular ATP” value in data set [8] (0.0457 μM–100 µM) is reported as “no effect”. Further, in [8] (Homo sapiens, 3D cardiac spheroids, 0.0457 μM–100 µM, read-out: IC50, impaired DNA structure), the IC50 (as a rule, the concentration that gives 50% inhibition) came out at 37.4 µM. For the same molecule, the concentration at half-maximal activity (AC50) (commonly the midpoint of the concentration-response curve, whichever way the signal moves) in [8] (Homo sapiens, 3D cardiac spheroids, read-out: DNA structure AC50) was found to be 37.4 µM.
